Experimental data published in patent publication US6610719B2 (Pfizer Inc., priority 2000, dated 2003).

Columns and labels:
[1] = target: T1, EP1 receptor (Homo sapiens, UniProt P34995); test: Assay for binding to prostaglandin E2 receptors, 3H-PGE2 displacement (EP1); conditions: displacement of 3H-prostaglandin E2, membranes of transfected 293S cells; read-out: IC50 at EP1 receptor subtype
T1 construct: These full length receptors are used to prepare 293S cells expressing the EP1, EP2, EP3 and EP4 receptors; expressed in transfected cells; membranes
T1 sequence (P34995 1-402): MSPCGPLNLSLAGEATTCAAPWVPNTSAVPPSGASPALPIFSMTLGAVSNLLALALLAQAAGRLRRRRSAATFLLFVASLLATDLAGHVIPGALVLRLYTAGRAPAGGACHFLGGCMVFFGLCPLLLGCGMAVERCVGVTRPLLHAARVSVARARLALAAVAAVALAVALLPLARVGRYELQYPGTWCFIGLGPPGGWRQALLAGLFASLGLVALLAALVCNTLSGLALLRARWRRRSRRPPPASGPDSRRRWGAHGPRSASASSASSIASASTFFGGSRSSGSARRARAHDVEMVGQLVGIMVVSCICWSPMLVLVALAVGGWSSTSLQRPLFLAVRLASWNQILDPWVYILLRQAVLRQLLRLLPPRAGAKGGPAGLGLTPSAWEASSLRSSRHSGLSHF
Protocol: (§1) All operations are performed at 4° C. […] The cells are lysed by sonification with a Branson Sonifier (Model #250, Branson Ultrasonics Corporation, Danbury, Conn.) in 2 fifteen second bursts. Unlysed cells and debris are removed by centrifugation at 100×g for 10 min. Membranes are then harvested by centrifugation at 45,000×g for 30 minutes. Pelleted membranes are resuspended to 3-10 mg of protein per ml of Buffer A, the protein concentration being determined by the method of Bradford [M. Bradford, Anal. Biochem., 72, 248 (1976)]. Resuspended membranes are then stored frozen at −80° C. until use.
(§2) Frozen membranes prepared as above are thawed and diluted to 1 mg protein per ml in Buffer A above. One volume of membrane preparation is combined with 0.05 volume test compound or buffer and one volume of 3 nM ^3H-prostaglandin E2 (#TRK 431, Amersham, Arlington Heights, Ill.) in Buffer A. The mixture (205 μL total volume) is incubated for 1 hour at 25° C. The membranes are then recovered by filtration through type GF/C glass fiber filters (#1205-401, Wallac, Gaithersburg, Md.) using a Tomtec harvester (Model Mach 11/96, Tomtec, Orange, Conn.). […] To determine the amount of ^3H-prostaglandin bound to the membranes, the dried filters are placed into plastic bags with scintillation fluid and counted in a LKB 1205 Betaplate reader (Wallac, Gaithersburg, Md.). […]

[2] = target: T2, EP2 receptor (Homo sapiens, UniProt P43116); test: Assay for binding to prostaglandin E2 receptors, 3H-PGE2 displacement (EP2); conditions: displacement of 3H-prostaglandin E2, membranes of transfected 293S cells; read-out: IC50 at EP2 receptor subtype
T2 construct: These full length receptors are used to prepare 293S cells expressing the EP1, EP2, EP3 and EP4 receptors; expressed in transfected cells; membranes
T2 sequence (P43116 whole entry): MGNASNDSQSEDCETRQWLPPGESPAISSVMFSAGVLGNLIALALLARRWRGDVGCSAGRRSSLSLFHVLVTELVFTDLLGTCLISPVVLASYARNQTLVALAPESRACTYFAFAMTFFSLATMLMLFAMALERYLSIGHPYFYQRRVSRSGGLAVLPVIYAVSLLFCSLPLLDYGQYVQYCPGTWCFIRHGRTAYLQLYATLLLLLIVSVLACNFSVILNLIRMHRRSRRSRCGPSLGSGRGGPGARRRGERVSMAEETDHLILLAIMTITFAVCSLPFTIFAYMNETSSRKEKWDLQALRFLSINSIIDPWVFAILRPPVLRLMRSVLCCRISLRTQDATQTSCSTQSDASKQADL
Protocol: as §1, §2

[3] = target: T3, EP4 receptor (Homo sapiens, UniProt P35408); test: Assay for binding to prostaglandin E2 receptors, 3H-PGE2 displacement (EP4); conditions: displacement of 3H-prostaglandin E2, membranes of transfected 293S cells
T3 construct: These full length receptors are used to prepare 293S cells expressing the EP1, EP2, EP3 and EP4 receptors; expressed in transfected cells; membranes
T3 sequence (P35408 whole entry): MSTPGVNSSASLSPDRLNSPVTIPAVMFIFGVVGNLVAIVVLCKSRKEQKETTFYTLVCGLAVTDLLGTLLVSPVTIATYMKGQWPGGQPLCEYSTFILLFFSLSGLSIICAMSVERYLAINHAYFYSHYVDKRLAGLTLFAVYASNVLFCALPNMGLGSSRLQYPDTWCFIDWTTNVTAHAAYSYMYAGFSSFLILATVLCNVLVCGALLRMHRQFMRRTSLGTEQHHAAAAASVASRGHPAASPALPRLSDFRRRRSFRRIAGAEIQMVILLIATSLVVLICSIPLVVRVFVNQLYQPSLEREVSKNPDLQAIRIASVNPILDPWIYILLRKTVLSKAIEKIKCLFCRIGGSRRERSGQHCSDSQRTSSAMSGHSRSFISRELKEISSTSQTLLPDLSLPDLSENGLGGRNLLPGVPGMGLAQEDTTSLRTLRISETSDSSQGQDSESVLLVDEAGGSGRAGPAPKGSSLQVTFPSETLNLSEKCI
Protocol: as §1, §2

[4] = target: T4, EP3 receptor (Homo sapiens, UniProt P43115); test: Assay for binding to prostaglandin E2 receptors, 3H-PGE2 displacement (EP3); conditions: displacement of 3H-prostaglandin E2, membranes of transfected 293S cells; read-out: IC50 at EP3 receptor subtype
T4 construct: These full length receptors are used to prepare 293S cells expressing the EP1, EP2, EP3 and EP4 receptors; expressed in transfected cells; membranes
T4 sequence (P43115 1-390): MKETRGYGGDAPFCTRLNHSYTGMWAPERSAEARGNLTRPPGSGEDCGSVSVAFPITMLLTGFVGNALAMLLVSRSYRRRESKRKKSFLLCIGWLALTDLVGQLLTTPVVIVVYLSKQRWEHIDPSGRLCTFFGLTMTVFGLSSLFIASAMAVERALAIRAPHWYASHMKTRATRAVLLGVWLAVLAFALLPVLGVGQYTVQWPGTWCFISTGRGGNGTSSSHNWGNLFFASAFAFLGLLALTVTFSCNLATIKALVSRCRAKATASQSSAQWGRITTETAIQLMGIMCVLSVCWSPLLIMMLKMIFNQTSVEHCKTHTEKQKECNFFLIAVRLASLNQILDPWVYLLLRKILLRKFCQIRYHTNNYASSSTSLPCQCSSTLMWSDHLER
Protocol: as §1, §2

[5] = system: nephrotoxic acute renal failure model; test: Nephrotoxic acute renal failure model; type: in vivo, rat
Protocol: The remnant rat kidney (5/6 nephrectomy) model employed was essentially as previously described in the literature (Vukicevic et al., Journal of Bone and Mineral Research, 2:533-545 (1987)). In brief, male rats (4 months old, weighing approximately 400 g) were anesthesized by intraperitoneal administration of ketamin (20 mg/kg) and then subjected to unilateral nephrectomy (left kidney). All animals were subjected to intraperitoneal administration of 1-3 ml of prewarmed saline to compensate for any fluid loss during the surgery. After one week, ⅔ of the remaining kidney was surgically removed. The rats were allowed to recover for one or two weeks prior to the initiation of the therapy for the prevention of the disease.
Blood samples (0.5 ml) were obtained from the orbital plexus and serum creatinine, BUN (blood urea nitrogen), calcium, phosphate and other blood chemistries were monitored throughout the study. Urine was collected on metabolic cages for 24 h. Creatinine was measured by a Jaffe method. A. W. Whelton, A. J. Watson and R. C. Rock: “Nitrogen Metabolites and Renal Function,” in: Clinical Chemistry (Eds: C. A. Burtis and E. R. Ashwood) W. B. Saunders, Philadelphia, Pa., 1513-1575 (1994). BUN was measured by a glutamate dehydrogenase ultraviolet method, phosphorus by a molybdate method, and calcium by an o-cresolphtaleine method. R. A. Lafayette, R. D. Perrone and A. S. Levey: “Laboratory Evaluation of Renal Function,” in: Diseases of the Kidney (Eds: R. W. Schrier and C. W. Gottschalk), Little, Brown and Company, Inc., Vol. 6, 307-354 (1997). The GFR was calculated using […] (24 hr collection) and adjusted to body weights. The cumulative survival rate was also observed and recorded for both the control and the experimental groups. The kidney was subjected to histomorphometric analysis and scored for tissue pathology.
Two different models of acute renal failure were used: the nephrotoxic acute renal failure model, as described above, and the reperfusion renal injury model, which involved clamping both renal arteries for 60 minutes. […]

[6] = system: reperfusion renal injury model; test: Reperfusion renal injury model (clamping both renal arteries for 60 minutes); type: in vivo, rat; conditions: 24 hours following reperfusion
Protocol: Two different models of acute renal failure were used: the nephrotoxic acute renal failure model, as described above, and the reperfusion renal injury model, which involved clamping both renal arteries for 60 minutes. (K. J. Kelly, W. W. Williams, R. B. Colvin and J. V. Bonventure, “Intercellular Adhesion Molecule 1 Protects the Kidney Against Ischemic Injury,” Proc. Natl. Acad. Sci. USA, 91:812-816 (1994); and S. Vukicevic, V. Basic, D. Rogic, N. Basic, M. S. Shih, A. Shepard, D. Jin, D. Bosukonda, W. Jones, H. Dorai, S. Ryan, D. Griffiths, J. Maliakal, M. Jelic, M. Pastorcic, A. Stavljenic and K. Sampath, “Osteogenic Protein-1 (Bone Morphogenetic Protein-7) Reduces Severity of Injury After Ischemic Acute Renal Failure in Rat,” J. Clin. Invest.,102:202-214 (1998).)
The animals were dosed with the EP4 agonist just prior to the initiation of the nephrotoxic insult.

## O=C(O)CCCCCCN1C(=O)CCC1CCC(O)Cc1ccccc1 (centres unmarked) [7-(2-(3-hydroxy-4-phenyl-butyl)-5-oxo-pyrrolidin-1-yl)-heptanoic acid]
[1]
  IC50: > 3.2 µM
[2]
  IC50: > 3.2 µM
[3]
  IC50: 0.016 µM
[4]
  IC50: > 3.2 µM
[5]; dose of 10 mg/kg, control group four out of ten
  animals survived after seven days: nine out of ten
[5]; dosed just prior to the nephrotoxic insult
  protection against renal injury, based on serum parameters: effective in protecting against renal injury
[5]; doses 1 mg/kg and 10 mg/kg, 10 mg/kg better than 1 mg/kg
  survival time of animals: increased the survival time of animals in a dose dependent manner
[6]
  efficacy in reperfusion renal injury: effective 24 hours following reperfusion
